Results on one substance are retold here after patent publication US8778389B2, “Medicament for the treatment of fungal infections particularly aspergillosis” (Sigma-Tau Industrie Farmaceutiche Riunite S.p.A., priority 2004, dated 2014).

For data set [1], the system named is IFN-γ and IL-4 mRNA. The data set is described as follows: Cytokine gene expression on CD4+ spleen cells by real-time RT-PCR. The data set is classed as in vivo, mice. The note with it: prophylactic and therapeutic treatment. The protocol:
(§1) BM-transplanted mice, generated as described in detail in the legend to FIG. 1, were infected intranasally with 2×10^7 Aspergillus conidia and treated with 1 mg/kg PTX3 intraperitoneally both before infection (oblique line bars) and from the day of infection and continuing for another 3 days (dotted bars). At 3 days after infection, IL-12 p70 and IL-10 levels were determined by specific ELISA analyses in bronchoalveolar lavage fluids (A), the number of CD4^+ T spleen cells producing cytokines were numbered by ELISPOT analysis (B) and the gene expression of cytokine on CD4^+ spleen cells was determined by real-time PCR. Bars indicate standard errors. *P<0.05, infected vs. non-infected mice; **P<0.05, PTX3-treated vs untreated mice. Non-infected mice (white bars); infected mice (black bars).
Total RNA (5 μg, extracted from CD4^+ T spleen cells using the RNeasy Mini Kit (QIAGEN S.p.A., Milan, Italy)) was retrotranscribed with Sensiscript reverse transcriptase (QIAGEN) according to the manufacturer's indications. The primers for PCR were obtained from Applied Biosystems (Foster City, Calif.). […] The data normalised with RNA 18S were expressed as relative mRNA of the cytokines examined (ΔΔCt) and compared with those of naive mice (10).

Data set [2] concerns A. fumigatus. The data set is described as follows: Lung histology (periodic acid Schiff) in mice with invasive aspergillosis. It counts as in vivo. The note with it: 1 mg/kg i.p. from day of infection and for another 5 days; 6 days after infection. The protocol: Periodic Schiff base sections were prepared from the lungs of the BM-transplanted mice infected with Aspergillus conidia either untreated (A) or treated (B) with 1 mg/kg PTX3 intraperitoneally from the day of infection and continuing for another 5 days. Numerous Aspergillus hyphae (arrows) infiltrate the pulmonary parenchyma, with extensive parenchymal destruction and strong signs of damage to the bronchial wall, and necrosis and poor cell recruitment are observed in the lungs of the untreated mice ([…]). […] Enlargement, ×100 in panels A and B; ×400 in insets.
(§2) The A. fumigatus strain was supplied by a fatal case of pulmonary aspergillosis at the Institute for Infectious Diseases of the University of Perugia (13). […] For reinfection, the mice surviving the primary intranasal (i.n.) infection were inoculated with 5×10^5 of Aspergillus conidia i.v. The fungal load in the lungs, brain and kidneys of the infected mice was quantified by serial plating on Sabouraud dextrose medium and the results (mean±SE) were expressed as colony forming units (CFU) in samples taken from the organs indicated. For selected experiments, the fungal growth was also evaluated by chitin analysis (10). […]

Data set [3] can be described thus: PTX3 levels in bronchoalveolar lavage fluids after i.n. administration. The conditions noted are these: 0.5 mg/kg i.n. The data set is classed as in vivo, mice. Here is the method:
To assess whether PTX3 may have a beneficial effect in otherwise susceptible mice, we used BM-transplanted mice whose substantial susceptibility to IA is well documented (15). The mice were subjected to treatments with different doses of PTX3 administered intranasally or intraperitoneally, before, concomitantly with or after infection. The doses were selected on the basis of preliminary experiments showing that PTX3 levels (at the dose of 0.5 mg/kg/i.n.) were high in bronchoalveolar lavage fluids for at least 24 h (from 70 to 25 ng/ml from 2 to 24 h) and that they were higher than those observed in mice with IA one day after infection (from 2 to 15 ng/ml) (20 and unpublished data). The survival parameters and fungal load in the lung and brain were then recorded and analysed in comparison with those obtained in mice treated with different doses of AmBisome or Fungizone. […] A dose-dependent effect was detected for this administration period, in that the protective efficacy of PTX3 was lost at the dose of 0.04 mg/kg. […] No difference was observed between the two administration routes. […] These characteristics were not observed in the mice treated with PTX3, the lungs of which were characterised by healing infiltrates of poly- and mononuclear inflammatory cells with no evidence of fungal growth or destruction of the bronchial wall (FIG. 3B).

For data set [4], the system named is Aspergillus conidia. The data set is described as follows: Conidia-killing activity of effector phagocytes from treated mice. The data set is classed as in vivo. The note with it: treated vs untreated mice; data not shown.
The subject of data set [5] is Aspergillus conidia. The data set is described as follows: Resistance to Aspergillus reinfection (i.v.) in cured BM-transplanted mice. It counts as in vivo. The note with it: PTX3 concomitantly with primary infection; i.v. reinfection two weeks later; CFU 3 days after reinfection.
Description: FIG. 2 illustrates the effect of the administration of PTX3 on resistance to Aspergillus reinfection. BM-transplanted mice, generated as described in detail in the legend to FIG. 1, were infected intranasally with 2×10^7 Aspergillus conidia one week after the BM transplant and treated concomitantly with PTX3 at the doses and via the administration routes indicated, starting on the day of infection and continuing for the next 5 days. Two weeks after the infection the surviving mice were reinfected intravenously with 5×10^5 Aspergillus conidia. The fungal growth (CFU) in the kidneys was evaluated 3 days after reinfection. * Indicates P<0.05 (treated vs. untreated mice).
as §2

Data set [6] concerns A. fumigatus. The experiment in a line: In-vitro direct killing activity on the fungus. It counts as cell-based. The note with it: data not shown.
Data set [7] concerns A. fumigatus. It counts as in vivo, mice. The protocol:
Lethally irradiated C3H/HeJ mice were infused with T-cell-depleted BM cells of BALB/c mice (2×10^6) one week before intra-nasal infection with 2×10^7 Aspergillus conidia. The mice were treated with PTX3 or with the polyenes, at the doses and via the routes indicated, 5 days before (Pre-) or after (Post-) or concomitantly with infection (Con.), in each case repeating the administration for the next 5 days. Resistance to the infection was assessed as percentage survival. The fungal load in the lungs, brains and kidneys of the infected mice was quantified by serial plating on the Sabouraud dextrose medium of the lavages of the various organs and the results were expressed as colony forming units (CFU) (mean±SE) in samples taken from the organs indicated and performed at the time of death for the mice that died […] or otherwise at 6 days after infection. The groups consisted of 6 animals.
BM-transplanted mice, generated as described in detail in the legend to FIG. 1, were infected intranasally with 2×10^7 Aspergillus conidia and treated intraperitoneally with each single agent alone or in combination, before (Pre-) or after (Post-) infection. The doses were: 0.04 and 0.2 mg/kg PTX3 before or after infection, respectively; 1 mg/kg AmBisome and 2 mg/kg Fungizone.
Bone marrow (BM) cells from BALB/c donor mice were prepared by differential agglutination with soy agglutinin.
The A. fumigatus strain was supplied by a fatal case of pulmonary aspergillosis at the Institute for Infectious Diseases of the University of Perugia (13). For infection, the mice were lightly anaesthetised by means of the inhalation of ethyl ether prior to the instillation of a suspension of 2×10^7 conidia/20 μL saline solution, which was delivered slowly through the nostrils using a micropipette with a sterile disposable tip. This procedure was repeated for 3 consecutive days. For reinfection, the mice surviving the primary intranasal (i.n.) infection were inoculated with 5×10^5 of Aspergillus conidia i.v. The fungal load in the lungs, brain and kidneys of the infected mice was quantified by serial plating on Sabouraud dextrose medium and the results (mean±SE) were expressed as colony forming units (CFU) in samples taken from the organs indicated. For selected experiments, the fungal growth was also evaluated by chitin analysis (10). For the histological analysis, the lung was removed and immediately fixed in formalin. Sections (3 to 4 μm) of tissues embedded in paraffin were stained with the periodic acid Schiff base procedure (13, 20).
PTX3 (SIGMA-Tau, Pomezia, Rome, Italy) was purified by immunoaffinity chromatography from the culture supernatants of CHO cells CHO transfected with PTX3 and monitored for the absence of endotoxins (20). PTX3, amphotericin B deoxycholate (D-AmB, Fungizone, Bristol-Myers Squibb, Sermoneta, Italy) and liposomal amphotericin B (L-AmB, AmBisome, GILEAD, Milan, Italy) were diluted to the desired concentrations in sterile saline solution (PTX3) or in a 5% glucose-water solution.

The subject of data set [8] is CD4+, CD8+, Gr-1+, F4-80+ cells. The experiment in a line: Cell recovery by FACS analysis of lung and spleen cells and blood leukocyte count in mice with invasive aspergillosis. It counts as in vivo. Here is the method:
BM-transplanted mice, generated as described in detail in the legend to FIG. 1, were infected intranasally with 2×10^7 Aspergillus conidia and treated (+) or untreated (−) with 1 mg/kg PTX3 intraperitoneally from the day of infection and continuing for another 5 days. The numbers refer to the percentage of positive cells, reported by the FACS analysis in the lungs (A) and in the spleen (B), 3 or 6 days after infection.
The phenotype of the various cell types was assessed using murine antibodies against the antigens indicated with rat anti-mouse antibodies conjugated with FITC from PharMingen (San Diego, Calif.). Prior to immunochemical identification, the FcR was saturated by incubation of the cells with 5% normal serum. Histotype antibodies were used as controls. The analysis was done by means of FACScan (Becton Dickinson, Mountain View, Calif.). The data obtained were evaluated as percentage of positive cells. The histograms are representative of one of four independent experiments.
On the technique in general: In flow cytometry, cells or beads pass a laser one at a time.

Data set [9] has as its system IL-12 p70, IL-10, TNF-α, IFN-γ, IL-4. The data set is described as follows: Cytokine levels (ELISA) and cytokine-producing CD4+ T spleen cells (ELISPOT) in mice with invasive aspergillosis. It counts as in vivo. Here is the method: as §1
BM-transplanted mice, generated as described in detail in the legend to FIG. 1, were infected intranasally with 2×10^7 Aspergillus conidia and treated intraperitoneally with each individual agent alone or in combination after infection. The dosages were as described in detail in the legend to FIG. 6. […] levels (pg/ml) were determined in bronchoaleveolar lavage fluids 3 days after infection (A) and IFN-γ and IL-4 levels (pg/ml) in the culture supernatants of the antigen-activated spleen cells (B) performed at the time of death for those mice that died before, or otherwise at 6 days after infection. Bars indicate standard errors. (−, untreated mice). *P<0.05 treated vs. untreated mice; **P<0.05, combination treatment with PTX3+Fungizone (D-AmB) vs D-AmB alone; ***P<0.05, combination treatment with PTX3+AmBisome (L-AmB) vs each single treatment alone.
The levels of cytokines in the bronchoalveolar lavage fluids and in the supernatants of the cultures of spleen cells stimulated with Aspergillus (9, 10), thermally […], were determined using the ELISA Kit (R&D Systems, Inc. Space Import-Export srl, Milan Italy). The detection limits of the analyses (pg/ml) were <16 for IL-12 p70, <32 for TNF-α, <10 for IFN-γ and <3 for IL-4 and IL-10. For the numbering of the CD4^+ T cells producing cytokines, ELISPOT analysis was used on purified CD4^+ T spleen cells (9, 10). The results were expressed as the mean number of cells producing cytokines (±SE) per 10^5 cells, calculated using replicates of the serial cell dilutions.
On the technique in general: ELISA stands for enzyme-linked immunosorbent assay.

Setting [10] is: 1 mg/kg i.p., 3 days after infection, vs untreated control.

“Also recorded” adds a separate entry of the source. Where two headings read alike, the source gives them in different places. Bounds are passed on as bounds.

Turning to “PTX3: long pentraxin PTX3 purified by immunoaffinity chromatography from culture supernatants of CHO cells transfected with PTX3”, in data set [1], the “expression of IFN-γ mRNA” value is “significantly increased” and the “expression of IL-4 mRNA” value is reported as “reduced”. The lung pathology result in data set [2] is “no evidence of parenchymal destruction or fungal growth; also recorded: improved”. In addition, in data set [3], the “time PTX3 levels were high in bronchoalveolar lavage fluids” value is on record as “at least 24 h”. Moreover, the “conidia-killing activity of the effector phagocytes” value in data set [4] is reported as “higher”. In addition, in data set [5], the “fungal growth in the kidneys of reinfected mice” value is recorded as “reduced”. For the same substance, the “direct killing activity on the fungus” value in [6] is “ruled out any direct killing activity”. Also, the survival entry in data set [7] (PTX3 administered after infection) is recorded as “increased the survival of the mice only at the higher dose”. In addition, the survival in data set [7] (PTX3 administered prophylactically, any of the doses assayed) is on record as at least 60 days. In addition, in data set [7] (after infection, both doses), the “fungal load in the lung” value is “significantly reduced”. The “fungal load in the brain” value in data set [7] (after infection, higher dose) is “significantly reduced”. The protective efficacy entry in [7] (concomitantly with infection, 0.04 mg/kg) is listed as “lost”. Moreover, the “fungal load in the lungs and brain” value in [7] (prophylactic, particularly at highest dose (1 mg/kg), vs untreated) is “significantly reduced”. In data set [8] (1 mg/kg i.p., FACS), the “numbers of CD4+ cells, CD8+ cells and Gr-1+ neutrophils in the lungs” value is given as “significantly increased”; the “recovery of neutrophils and, partly, of CD4+ T cells in the spleens” value is “observed”. Further, the “absolute number of circulating neutrophils” value in data set [8] (blood leukocytes, data not shown) was “increased significantly”. In addition, the “number of F4-80+ cells of the lungs or spleens” value in data set [8] (with or without PTX3 treatment) is “No difference”. In data set [9] (setting [10]), the “increase of IL-12 production” value is recorded as “approximately 4 fold” and the “production of IL-10” value is listed as “halved”. In addition, in data set [9] (ELISPOT), the “frequency of CD4+ Th1 cells in the spleen” value is on record as “increased” and the “frequency of cells producing IL-4 in the spleen” value is listed as “reduced”. The “production of IL-4 by spleen cells” value in data set [9] (antigen-stimulated spleen cell supernatants, suboptimal doses) is on record as “greatly reduced”. Moreover, the “production of TNF-α” value in data set [9] (lungs of infected mice treated with PTX3) is listed as “not increased”.
